Data set [1] has as its system PC3 cell line, an AR insensitive cell line. Kind of data set: cell viability assay (Cell-titer blue), PC3. As to conditions: Homo sapiens, PC-3, read-out: PC3 CTB IC50. It counts as cell-based. The method, then:
(§1) All compounds were evaluated in a reporter gene assay (22Rv1 cell line lentiviral transduced with CMV-firefly luciferase) to monitor transcriptional effects and two cell viability assays (Cell-titer blue; PC3 cell line, an AR insensitive cell line, and LNCaP cell line, an AR sensitive cell line). The compounds were also monitored for aggregation.

The test system of data set [2] is LNCaP cell line, an AR sensitive cell line. Kind of data set: cell viability assay (Cell-titer blue), LNCaP. As to conditions: Homo sapiens, read-out: LNCaP CTB IC50. Type of data set: cell-based. Here is the method: as §1
Data set [3] can be described thus: Solubility. It counts as physicochemical.
In data set [4] the test system is 22Rv1 cell line lentiviral transduced with CMV-firefly luciferase. As to the kind of experiment: reporter gene assay to monitor transcriptional effects. To be noted: Homo sapiens; 22Rv1, CMV-firefly luciferase. It counts as cell-based. Here is the method:
as §1
In general terms: Reporter assays use an easily measured gene product as a stand-in for the process of interest.

The values below come from US10961216B2, “Small molecule modulators of the androgen receptor” (Massachusetts Institute of Technology, priority 2017, dated 2021).

≈ marks a conversion by molar mass, not a printed value. Where two headings read alike, the source gives them in different places.

For `Cc1c(C(=O)N(C)Cc2cccc3ncccc23)sc2ncnc(NCC3C4C=CC(C4)C3CO)c12` (stereo not drawn) [II-3], the IC50 (commonly the concentration needed to halve the response being measured) in data set [1] turned out to be 3210 µM; in data set [2], 493 µM. Besides, the Solubility (usually the concentration that dissolves in the medium under given conditions) in data set [3] worked out at 25 mM (≈ 12.5 mg/mL).
In the case of `O=C(NCCC1CC2C=CC1C2)c1cccc(OC2CCN(C(=O)Cc3ccccc3)CC2)c1` (stereo not drawn) [Compound I-7], the IC50 was approximately 25.9 µM in data set [4] and 52.4 µM in data set [2]. In data set [3], the “Solubility” value turned out to be 25 mM (≈ 11.5 mg/mL).
For the molecule `CC(=O)Oc1cccc(C(=O)NCC2CC3C=CC2CC3)c1` (stereo not drawn) [Compound I-19], the “Solubility” value in data set [3] was determined as 25 mM (≈ 7.48 mg/mL).
For `Cc1c(C(=O)N(C)Cc2cccc3ncccc23)sc2ncnc(NCC3CC4C=CC3CC4)c12` (stereo not drawn) [II-5], the 50% inhibitory concentration (IC50) in data set [4] was found to be 2.36 µM; in data set [1] it was 782 µM; in data set [2] it was 8.09 µM. In data set [3], the “Solubility” value came out at 25 mM (≈ 12.1 mg/mL).
For the molecule `CC(=O)CCC(=O)N1CCC(Oc2cccc(C(=O)NCCC3CC4C=CC3C4)c2)CC1` (stereo not drawn) [Compound I-36], the IC50 in data set [1] is 80.5 µM. In data set [3], the “Solubility” value amounted to 25 mM (≈ 11 mg/mL).
Turning to `CN(Cc1cccc2ncccc12)C(=O)c1cccc(OC2CCN(C(=O)C3CC3)CC2)c1` [Compound I-24], the half-inhibitory concentration (IC50) is 20.4 µM in data set [4] and 1650 µM in data set [2]. The Solubility in data set [3] (read-out: Solubility) turned out to be 12.5 mM (≈ 5.54 mg/mL).
Turning to `O=C(NCC1CC2C=CC1C2)c1cccc(OC2CCN(C(=O)C3CCC3)CC2)c1` (stereo not drawn) [Compound I-18], the IC50 in data set [4] was approximately 24.4 µM; in data set [2], 41.2 µM. Besides, the “Solubility” value in data set [3] stood at 25 mM (≈ 10.2 mg/mL).
On to `CC(NC(=O)c1cccc(OC2CCN(C(=O)C3CC3)CC2)c1)C12CC3CC(CC(C3)C1)C2` (stereo not drawn) [Compound I-14], for which the “Solubility” value in data set [3] is listed as 25 mM (≈ 11.3 mg/mL).
On to `O=C(NCC1C2C=CC(C2)C1CO)c1ccc(OC2CCN(C(=O)C3CC3)CC2)cc1` (stereo not drawn) [Compound I-37], for which, in data set [1], the IC50 worked out at 1150 µM. The “Solubility” value in data set [3] was 25 mM (≈ 10.6 mg/mL).
On to `O=C(NCCC1CCCCC1)c1cccc(OC2CCN(C(=O)C3CC3)CC2)c1` [Compound I-32], for which the IC50 in data set [1] came to 101 µM; in data set [2] it was 79.2 µM. In data set [3], the “Solubility” value was 25 mM (≈ 9.96 mg/mL).
For `O=C(NCC1CC2C=CC1C2)c1cccc(OC2CCN(C(=O)C(F)(F)F)CC2)c1` (stereo not drawn) [Compound I-17], the IC50 is 5.21 µM in data set [4] and 18.4 µM in data set [2]. Also, the “Solubility” value in data set [3] is listed as 25 mM (≈ 10.6 mg/mL).
Regarding `O=C(NCC1CC2C=CC1CC2)c1cccc(OC2CCN(C(=O)c3cccnc3)CC2)c1` (stereo not drawn) [Compound I-40], the concentration for half-maximal inhibition (IC50) in data set [1] turned out to be 90.3 µM; in data set [2] it was 120 µM. The “Solubility” value in data set [3] is given as 25 mM (≈ 11.1 mg/mL).
Taken in the same sequence, the figures for `O=C(NCC1CC2C=CC1CC2)c1cccc(OC2CCN(C(=O)C(F)(F)F)CC2)c1` (stereo not drawn) [Compound I-39] were 93.9 µM, 397 µM and 25 mM (≈ 10.9 mg/mL).
On to `Cc1c(C(=O)N(C)Cc2cccc3ncccc23)sc2ncnc(NCCC3CC4C=CC3C4)c12` (stereo not drawn) [II-6], for which the concentration for half-maximal inhibition (IC50) is 8.29 µM in data set [4], 1680 µM in data set [1] and 14.1 µM in data set [2]. Further, in data set [3], the “Solubility” value was 25 mM (≈ 12.1 mg/mL).
As for `CCOC(=O)C1C2C=CC(C2)C1CNC(=O)c1ccc(OC2CCN(C(=O)C3CC3)CC2)cc1` (stereo not drawn) [Compound I-38], the IC50 in data set [1] is 1890 µM. In addition, the Solubility in data set [3] (read-out: Solubility) amounted to 12.5 mM (≈ 5.83 mg/mL).
Turning to `O=C(NCC1CC2C=CC1C2)c1cccc(OC2CCN(C(=O)C3CC3)CC2)c1` (stereo not drawn) [Compound I-11], 28.3 µM corresponded to half-maximal inhibition in data set [4] (IC50). In addition, in data set [3], the “Solubility” value was determined as 25 mM (≈ 9.86 mg/mL).
Take `O=C(NCCCc1ccccc1)c1cccc(OC2CCN(C(=O)C3CC3)CC2)c1` [Compound I-26]: the figures for the IC50 in data set [1] and in data set [2] were 341 µM and 222 µM, respectively. Further, the “Solubility” value in data set [3] is 25 mM (≈ 10.2 mg/mL).
As to `O=C(NCC1CC2C=CC1CC2)c1cccc(OC2CCN(C(=O)C3CC3)CC2)c1` (stereo not drawn) [Compound I-23], the IC50 is approximately 25.5 µM in data set [4] and 1020 µM in data set [2]. Also, in data set [3], the “Solubility” value was 25 mM (≈ 10.2 mg/mL).
`O=C(NCCC1CC2C=CC1C2)c1ccc(OC2CCN(C(=O)C3CC3)CC2)cc1` (stereo not drawn) [Compound I-10]: the “Solubility” value in data set [3] is listed as 25 mM (≈ 10.2 mg/mL).
Consider `Cc1c(C(=O)Nc2ccc3ccccc3c2)sc2ncnc(NCC3CC4C=CC3C4)c12` (stereo not drawn) [II-7], for which the IC50 in data set [2] worked out at 68.2 µM. Moreover, the “Solubility” value in data set [3] worked out at 25 mM (≈ 11 mg/mL).
With `O=C(NCCC1CC2C=CC1C2)c1cccc(OC2CCN(C(=O)CCc3ccc(Cl)cc3)CC2)c1` (stereo not drawn) [Compound I-22], the half-inhibitory concentration (IC50) in data set [2] worked out at 3580 µM. In addition, in data set [3] (read-out: Solubility), the Solubility worked out at 6.25 mM (≈ 3.17 mg/mL).
For `O=C(Nc1ccc(Cl)cc1)c1cccc(OC2CCN(C(=O)C3CC3)CC2)c1` [Compound I-28], the IC50 in data set [1] came out at 176 µM; in data set [2], 698 µM. Further, the “Solubility” value in data set [3] is 25 mM (≈ 9.97 mg/mL).
For `CC(C)c1ccc(NC(=O)c2cccc(OC3CCN(C(=O)C4CC4)CC3)c2)cc1` [Compound I-29], the half-maximal inhibitory concentration (IC50) in data set [2] is 25.1 µM. Also, the “Solubility” value in data set [3] came to 25 mM (≈ 10.2 mg/mL).
Turning to `O=C(NCC1CC2C=CC1CC2)c1ccc(OC2CCN(C(=O)C3CC3)CC2)cc1` (stereo not drawn) [Compound I-25], the concentration for half-maximal inhibition (IC50) in data set [2] was found to be 388 µM. In addition, the “Solubility” value in data set [3] amounted to 25 mM (≈ 10.2 mg/mL).
For the molecule `C=CCCC(=O)N1CCC(Oc2cccc(C(=O)NCCC3CC4C=CC3C4)c2)CC1` (stereo not drawn) [Compound I-35], the results for the half-maximal inhibitory concentration (IC50) in data set [4] and in data set [2] were 31.5 µM and 26.5 µM, respectively. Moreover, in data set [3], the “Solubility” value amounted to 25 mM (≈ 10.6 mg/mL).
Turning to `O=C(Nc1ccccc1)c1cccc(OC2CCN(C(=O)C3CC3)CC2)c1` [Compound I-30], the IC50 in data set [2] was determined as 136 µM. Besides, in data set [3], the “Solubility” value was determined as 25 mM (≈ 9.11 mg/mL).
Take `CCCCC(=O)N1CCC(Oc2cccc(C(=O)NCCC3CC4C=CC3C4)c2)CC1` (stereo not drawn) [Compound I-34]: the IC50 in data set [4] is approximately 27.9 µM; in data set [1] it was 55.8 µM; in data set [2] it was 28.8 µM. Besides, the Solubility in data set [3] (read-out: Solubility) turned out to be 12.5 mM (≈ 5.31 mg/mL).
For the molecule `O=C(NCCC1CC2C=CC1C2)c1cccc(OC2CCN(C(=O)c3cccnc3)CC2)c1` (stereo not drawn) [Compound I-9], the IC50 in data set [2] is 355 µM. Further, the “Solubility” value in data set [3] is 25 mM (≈ 11.1 mg/mL).
`O=C(NCCC1CC2C=CC1C2)c1cccc(OC2CCN(C(=O)C3CCCCC3)CC2)c1` (stereo not drawn) [Compound I-4]: the IC50 was approximately 25.2 µM in data set [4], 33400 µM in data set [1] and 24.3 µM in data set [2]. In addition, the “Solubility” value in data set [3] stood at 25 mM (≈ 11.3 mg/mL).
With `O=C(Nc1ccc2ccccc2c1)c1cccc(OC2CCN(C(=O)C3CC3)CC2)c1` [Compound I-27], the IC50 in data set [1] is 49.9 µM; in data set [2], 28.5 µM. Besides, the Solubility in data set [3] (read-out: Solubility) is 12.5 mM (≈ 5.18 mg/mL).
In the case of `O=C(NCCC1CC2C=CC1C2)c1cccc(OC2CCN(C(=O)C(F)(F)F)CC2)c1` (stereo not drawn) [Compound I-8], the IC50 worked out at 21.9 µM in data set [4] and 70.5 µM in data set [2]. Moreover, the “Solubility” value in data set [3] is given as 25 mM (≈ 10.9 mg/mL).
As for `CCCC(CCC)C(=O)N1CCC(Oc2cccc(C(=O)NCCC3CC4C=CC3C4)c2)CC1` (stereo not drawn) [Compound I-21], the IC50 in data set [2] is 342 µM. Also, in data set [3], the “Solubility” value is given as 25 mM (≈ 11.7 mg/mL).
As for `O=C(NCCC1CC2C=CC1C2)c1cccc(OC2CCN(C(=O)c3ccccc3)CC2)c1` (stereo not drawn) [Compound I-6], the results for the IC50 in data set [4] and in data set [2] were approximately 24.9 µM and 8.2 µM, respectively. In addition, the “Solubility” value in data set [3] stood at 25 mM (≈ 11.1 mg/mL).
Taken in the same sequence, the figures for `O=C(NCCC1CC2C=CC1C2)c1cccc(OC2CCN(C(=O)C3CCC3)CC2)c1` (stereo not drawn) [Compound I-5] were approximately 25.2 µM, 24.6 µM and 25 mM (≈ 10.6 mg/mL).
Consider `O=C(NCC12CC3CC(CC(C3)C1)C2)c1cccc(OC2CCN(C(=O)C3CC3)CC2)c1` [Compound I-13], for which the IC50 in data set [2] stood at 172 µM. Besides, the “Solubility” value in data set [3] worked out at 25 mM (≈ 10.9 mg/mL).
Consider `O=C(NCc1ccccc1)c1cccc(OC2CCN(C(=O)C3CC3)CC2)c1` [Compound I-31], for which the figures for the concentration for half-maximal inhibition (IC50) in data set [1] and in data set [2] were 166 µM and 62.6 µM, respectively. The “Solubility” value in data set [3] was determined as 25 mM (≈ 9.46 mg/mL).
As for `O=C(NCCC1CC2C=CC1C2)c1cccc(OC2CCN(C(=O)C3CCCC3)CC2)c1` (stereo not drawn) [Compound I-3], the IC50 was approximately 24.6 µM in data set [4], 3560 µM in data set [1] and 16.7 µM in data set [2]. In addition, the “Solubility” value in data set [3] was 25 mM (≈ 10.9 mg/mL).
Take `Cc1c(C(=O)N(C)Cc2cccc3ncccc23)sc2ncnc(NCCC3CCCCC3)c12` [II-4]: the IC50 in data set [4] is 9.63 µM; in data set [2] it was 10.7 µM. The “Solubility” value in data set [3] is reported as 25 mM (≈ 11.8 mg/mL).
As for `O=C(NCC1CC2C=CC1CC2)c1cccc(O)c1` (stereo not drawn) [Compound I-20], the “Solubility” value in data set [3] was 25 mM (≈ 6.43 mg/mL).
